Experimental data: US7964623B2, “Tricyclic benzopyrane compound” (Nissan Chemical Industries Ltd., priority 2004, dated 2011)

Legend:
[1] = system: atrium; assay: Effects on the atrial effective refractory period (S1-S2 extrastimulus technique during bilateral vagal nerve stimulation) in anesthetized beagles; assay type: in vivo; settings: intravenous, from 5 minutes after administration, basic cycle length 300 msec
Experimental: Effects on the Effective Refractory Period
Beagles were anesthetized with pentobarbital sodium and thoracotomy was done along the median line under a respirator and the incision was made on the pericardium to expose the heart. An electrocardiogram (ECG) was recorded using bipolar electrodes attached to the surface of the right atrial free wall, right atrial auricle, and right ventricular free wall. The vagal nerves were stimulated using an electrostimulation device with Nichrome wires inserted into the vagal nerves in the neck bilaterally. The conditions for electrostimulation to the vagal nerves were set such that the RR intervals on ECG were prolonged by about 100 msec compared with those before the stimulation was started.
Atrial and ventricular effective refractory periods were determined by S1-S2 extrastimulus technique at basic cycle length of 300 msec during bilateral vagal nerve stimulation, using programmable electric stimulator. A train of 10 basic stimuli (S1) was followed by a premature extrastimulus (S2) at 2 times diastolic threshold.
For evaluation of drug effects, the atrial and ventricular effective refractory periods were determined before drug administration, then respective compound was administrated intravenously at the dose of 0.3 mg/kg or 0.6 mg/kg, and the atrial and ventricular effective refractory periods were determined from 5 minutes after the administration.
The results were shown as the prolongation time on the atrial and ventricular effective refractory periods, i.e. [effective refractory period after drug administration]−[effective refractory period before drug administration] (msec).

melting point	Structure (SMILES)	Atrial Refractory Period (prolongation time on the atrial effective refractory period) ([1]; 0.3 mg/kg) [ms]	Atrial Refractory Period (prolongation time on the atrial effective refractory period) ([1]; 0.6 mg/kg) [ms]
258 to 259 °C (dec.)	CC1(C)Oc2cc3nccnc3cc2[C@H](NCCC2CCCCC2)[C@H]1O.Cl (relative stereo) [Synthesis Example 69, (3R*,4S*)-4-[(2-cyclohexylethyl)amino)]-2,2-dimethyl-3,4-dihydro-2H-pyrano[2,3-g]quinoxalin-3-ol hydrochloride]	37	–
221 to 226 °C (dec.)	Cc1cc(Cl)nc2cc3c(cc12)OC(C)(C)C(O)C3NCCc1ccccc1.O=C(O)/C=C\C(=O)O (racemic) [Synthesis Example 6, (±)-trans-7-Chloro-2,2,9-trimethyl-4-[(2-phenylethyl)amino]-3,4-dihydro-2H-pyrano[2,3-g]quinolin-3-ol 1 maleate]	–	20
141 to 143 °C	CC1(C)Oc2ccc3nc(Cl)ccc3c2[C@@H](NCCc2ccccc2)[C@@H]1O (racemic) [Synthesis Example 9, (±)-trans-8-Chloro-3,3-dimethyl-1-[(2-phenylethyl)amino]-2,3-dihydro-1H-pyrano[3,2-f]quinolin-2-ol]	–	–
214 to 217 °C (dec.)	Cc1ccc2cc3c(cc2n1)[C@H](NCCc1ccccc1)[C@@H](O)C(C)(C)O3.O=C(O)/C=C\C(=O)O (relative stereo) [Synthesis Example 13, (3R*,4S*)-2,2,7-trimethyl-4-[(2-phenylethyl)amino]-3,4-dihydro-2H-pyrano[2,3-g]quinolin-3-ol 1 maleate]	–	–
199 to 203 °C	Cc1cnc2cc3c(cc2c1C)OC(C)(C)C(O)C3NCCc1ccccc1.O=C(O)/C=C\C(=O)O (racemic) [Synthesis Example 3, (±)-trans-2,2,8,9-Tetramethyl-4-[(2-phenylethyl)amino]-3,4-dihydro-2H-pyrano[2,3-g]quinolin-3-ol 1 maleate]	–	–
170 to 171 °C	CC1(C)Oc2ccc3ncccc3c2C(NCCc2ccccc2)C1O (stereo not drawn) [Synthesis Example 17, (1R*,2R*)-3,3-dimethyl-1-[(2-phenylethyl)amino]-2,3-dihydro-1H-pyrano[3,2-f]quinolin-2-ol]	–	–
168 to 169 °C	Cc1cc(C(N)=O)nc2cc3c(cc12)OC(C)(C)[C@H](O)[C@H]3NCCc1ccccc1 (relative stereo) [Synthesis Example 15, (3R*,4S*)-3-hydroxy-2,2,9-trimethyl-4-[(2-phenylethyl)amino]-3,4-dihydro-2H-pyrano[2,3-g]quinoline-7-carboxamide]	–	–
294 to 295 °C (dec.)	Cc1cc(Cl)nc2cc3c(cc12)OC(C)(C)[C@H](O)[C@H]3NCCC1CCCCC1.Cl (relative stereo) [Synthesis Example 53, (3R*,4S*)-7-chloro-2,2,9-trimethyl-4-[(2-cyclohexylethyl)amino]-3,4-dihydro-2H-pyrano[2,3-g]quinolin-3-ol hydrochloride]	30	–

Second part, the molecule before the results:

Structure (SMILES)	melting point	Atrial Refractory Period (prolongation time on the atrial effective refractory period) ([1]; 0.3 mg/kg) [ms]	Atrial Refractory Period (prolongation time on the atrial effective refractory period) ([1]; 0.6 mg/kg) [ms]
Cc1cc(C)c2cc3c(cc2n1)C(NCCc1ccccc1)C(O)C(C)(C)O3 (racemic) [Synthesis Example 2, (±)-trans-2,2,7,9-Tetramethyl-4-[(2-phenylethyl)amino]-3,4-dihydro-2H-pyrano[2,3-g]quinolin-3-ol]	144 to 147 °C	–	21
CC1(C)Oc2ccc3ncccc3c2C(NCCc2ccccc2)C1O (racemic) [Synthesis Example 8, (±)-trans-3,3-Dimethyl-1-[(2-phenylethyl)amino]-2,3-dihydro-1H-pyrano[3,2-f]quinolin-2-ol]	180 to 182 °C	–	23
CC1(C)Oc2cc3c(CO)ccnc3cc2[C@H](NCCc2ccccc2)[C@H]1O.O=C(O)/C=C\C(=O)O (relative stereo) [Synthesis Example 84, (3R*,4S*)-9-hydroxymethyl-2,2-dimethyl-4-[(2-phenylethyl)amino)]-3,4-dihydro-2H-pyrano[2,3-g]quinolin-3-ol 1 maleate]	163 to 169 °C (dec.)	–	–
Cc1cc(CO)nc2cc3c(cc12)OC(C)(C)[C@H](O)[C@H]3NCCc1ccc(F)cc1 (relative stereo) [Synthesis Example 76, (3R*,4S*)-4-{[2-(4-fluorophenyl)ethyl]amino}-7-hydroxymethyl-2,2,9-trimethyl-3,4-dihydro-2H-pyrano[2,3-g]quinolin-3-ol]	147 to 152 °C	–	–
Cc1cc(Cl)[n+]([O-])c2cc3c(cc12)OC(C)(C)[C@H](O)[C@H]3NCCc1ccc(F)cc1.Cl (relative stereo)	193 to 198 °C (dec.)	–	–
Cc1cc(O)nc2cc3c(cc12)OC(C)(C)[C@H](O)[C@H]3NCCc1ccccc1.O=C(O)/C=C\C(=O)O (relative stereo) [Synthesis Example 85, (3R*,4S*)-2,2,9-trimethyl-4-[(2-phenylethyl)amino)]-3,4-dihydro-2H-pyrano[2,3-g]quinolin-3,7-diol 3/2 maleate]	184 to 188 °C (dec.)	–	–
Cc1cc(Cl)[n+]([O-])c2cc3c(cc12)OC(C)(C)[C@H](O)[C@H]3NCCc1ccccc1.Cl (relative stereo)	174 to 179 °C (dec.)	–	–
CC1(C)Oc2ccc3nc(C#N)ccc3c2[C@@H](NCCc2ccccc2)[C@@H]1O (racemic) [Synthesis Example 10, (±)-trans-2-Hydroxy-3,3-dimethyl-1-[(2-phenylethyl)amino]-2,3-dihydro-1H-pyrano[3,2-f]quinoline-8-carbonitrile]	93 to 96 °C	–	–
Cc1cc(Cl)nc2cc3c(cc12)OC(C)(C)[C@@H](O)[C@@H]3NCCc1ccccc1.O=C(O)/C=C\C(=O)O (relative stereo) [Synthesis Example 50, (3S*,4R*)-7-chloro-2,2,9-trimethyl-4-[(2-phenylethyl)amino]-3,4-dihydro-2H-pyrano[2,3-g]quinolin-3-ol 1 maleate]	240 to 242 °C	–	–
Cc1cc(C#N)nc2cc3c(cc12)OC(C)(C)C(O)C3NCCc1ccccc1.O=C(O)/C=C\C(=O)O (racemic) [Synthesis Example 7, (±)-trans-3-Hydroxy-2,2,9-trimethyl-4-[(2-phenylethyl)amino]-3,4-dihydro-2H-pyrano[2,3-g]quinoline-7-carbonitrile 1 maleate]	218 to 220 °C (dec.)	–	25
CC1(C)Oc2cc3cccnc3cc2[C@H](NCCc2ccccc2)[C@H]1O.O=C(O)/C=C\C(=O)O (relative stereo) [Synthesis Example 77, (3R*,4S*)-2,2-dimethyl-4-[(2-phenylethyl)amino]-3,4-dihydro-2H-pyrano[2,3-g]quinolin-3-ol 1 maleate]	187 to 192 °C (dec.)	25	–
CCCCCN[C@H]1c2cc3c(cc2OC(C)(C)[C@@H]1O)c(C)cc(Cl)[n+]3[O-].Cl (relative stereo)	226 to 230 °C (dec.)	–	–
CCCCCN[C@H]1c2cc3nccnc3cc2OC(C)(C)[C@@H]1O.Cl (relative stereo) [Synthesis Example 63, (3R*,4S*)-2,2-dimethyl-4-pentylamino-3,4-dihydro-2H-pyrano[2,3-g]quinoxalin-3-ol hydrochloride]	209 to 212 °C (dec.)	23	–
CC1(C)Oc2cc3c(cc2C(NCCc2ccccc2)C1O)N(Cc1ccccc1)C(=O)C3 (stereo not drawn) [Synthesis Example 90, 1-Benzyl-7-hydroxy-6,6-dimethyl-8-phenetylamino-3,6,7,8-tetrahydro-1H-pyrano[2,3-f]indole-2-one]	195 °C (dec.)	–	–
